Results on 1 compound are retold here after patent publication US20110195910A1, “USE OF TOCOTRIENOL COMPOSITION FOR THE PREVENTION OF CANCER” (DAVOS LIFE SCIENCE PTE. LTD., priority 2008, published 2011).

One assay concerns DU145 cells. The assay can be described thus: Spheroid formation assay, DU145 cells. The class given is cell-based. On the procedure: (§1) 5.1.7 Spheroid formation assay—Spheroid formation assay was performed with a protocol modified from previous study (Folkins C, p3560). Briefly, cells were first trypsinized, washed with 1× PBS and resuspended in DMEM F12 medium. Two hundred cells were added into each well of a 24-well-plate pre-coated with polyHEMA (Sigma, St. Louis, Mo.). Cells will be grown in DMEM/F12 mem (Invitrogen, Carlsbad, Calif.) supplemented with 4 μg/mL insulin (Sigma, St. Louis, Mo.), B27 (Invitrogen, Carlsbad, Calif.), 20 ng/mL EGF (Sigma, St. Louis, Mo.), and 20 ng/mL basic FGF (Invitrogen, Carlsbad, Calif.). Fresh medium with the above supplements was added every day. γ-T3 was added at indicated time points and the number of spheroids was counted at day 14 of the assay or at the end of the treatment. Each experiment was repeated in triplicates and each data point represented the mean and standard derivation.

Assay [1] relates to bladder cancer cell line MGH-U1. As to the kind of experiment: Spheroid formation assay, MGH-U1 cells. It counts as cell-based. On the procedure:
as §1

A further assay relates to MDA-MB-231 cells. As to the kind of experiment: Flow cytometry, western blotting and RT-PCR, MDA-MB-231 cells. It counts as cell-based, human. How it is done: 1.1.3 Flow cytometry—Cell cycle distribution was examined using flow cytometry. Briefly, cells were harvested by trypsinization, fixed in 70% ethanol at 4° C. overnight, and then resuspended in PBS. After incubation at 4° C. for overnight, 2×10^6 cells were incubated with in 20 μg/ml propidium iodide (PI) and 2 mg RNaseA for 15 minutes at 37° C. Cells were then examined by BD SLRII cytometer and the results were analyzed using ModFit software (Becton Dickinson, Mountain View, Calif.). Data were expressed as the percentage of cell cycle distribution in the entire population.
1.1.5 Western blotting—Detailed protocols have been described previously and are known in the art. Briefly, cell lysates were prepared by suspending cell pellets in lysis buffer [50 mmol/l Tris-HCl (pH 8.0), 150 mmol/l NaCl, 1% NP40, 0.5% deoxycholate, 0.1% SDS, 1 mg/ml aprotinin, 1 μg/ml leupeptin and 1 mmol/l phenylmethylsulfonyl fluoride]. For nuclear protein extraction, NucBuster™ protein extraction kit was used. Protein concentration was measured using the DC Protein Assay kit (Bio-Rad, Hercules, Calif.). Equal amount of protein (30 μg) was loaded onto a 10% SDS polyacrylamide gel for electrophoresis and then transferred onto a polyvinylidene difluoride membrane (Amersham, Piscataway, N.J.). The membrane was then incubated with primary antibodies for 1 hr at room temperature against E-cadherin (BD Biosciences, Bedford, Mass.), α-catenin, β-catenin, γ-catenin, Id-1, Id-3, EGFR, phosphor-c-jun, phosphor-ATF2, cleaved PARP, vimentin, α-smooth muscle actin, twist (Santa Cruz Biotechnology, Calif.), phosphor-IkB-alpha (Ser32/36), phosphor-IKK alpha (Seri 80)/IKK beta (Ser181), phosphor-SAPK/JNK (Thr183/Tyr185) G9, SAPK/JNK, NF-kB p65 (5A5) (Cell Signaling Technology Inc, Beverly, Mass.), Snail (Abcam). After incubation with appropriate secondary antibodies, signals were visualized by ECL western blotting system (Amersham, Piscataway, N.J.). Expression of β-actin and histone H1 were assessed as an internal loading control for total cell lysate and nuclear protein lysate respectively.
3.1.5 DNA fragmentation assay—After 24 hrs incubation with gamma-T3, 3×10^6 MDA-MB-231 cells were harvested and suspended in lysis buffer [5 mM Tris-HCl (pH 8.0), 20 mM EDTA, and 0.5% (v/v) Triton X-100] for 60 min on ice. Samples were centrifuged, the supernatants were removed and incubated with 5 μl RNase A (10 μg/ml) at 37° C. for 40 min, and 1 ml of anhydrous ethanol was added. Tubes were placed at […] for 20 min and then centrifuged to pellet the DNA. DNA samples were analyzed by electrophoresis at 80 V for 3 hrs on a 2% agarose gel containing ethidium bromide (0.2 μg/ml) and visualized under UV illumination.
3.1.6 Terminal deoxynucleotidyltransferase-mediated deoxyuridine triphosphate nick end-labelling (TUNEL) assay—DNA strand breaks during apoptosis was examined using in situ cell death detection reagent (Roche Applied Science). Briefly, 1×10^6 cells were pretreated with gamma-T3 for 24 hrs. Thereafter, cells were incubated with reaction mixture for 60 min at 37° C. Stained cells were analyzed and captured by fluorescence microscope on glass slide.
3.1.7 Flow cytometry was carried out as described above under item 1.1.3. Matrigel-invasion assay was carried out as described above under item 1.1.4. Western blotting was carried out as described above under item 1.1.5.
3.1.8 Id-1 RT-PCR—Total RNA was isolated using Trizol® reagent according to the manufacturer's protocol (Invitrogen). cDNA was synthesized using the SuperScript™ First Strand Synthesis System (Invitrogen) and was then amplified by PCR with Id-1 specific primers (forward primer, Id1-S, 5′-CTCCAGCACGTCATCGACTA-3′ and reverse primer, Id1-AS,5′-AAC GCA TGC CGC CTC-3′). PCR cycling protocol was as follows: 30 cycles of 10 min at 95° C., 30 s at 95° C., 30 s at 55° C., 1 min at 72° C. and 10 min at 72° C. Glyceraldehyde 3-phosphate dehydrogenase was amplified as an internal control. […]

Regarding `CC(C)=CCC/C(C)=C/CC/C(C)=C/CCC1(C)CCc2cc(O)c(C)c(C)c2O1` (stereo not shown) [γ-T3, 7,8-dimethyltocotrienol], the spheroid formation ability entry in the assay with DU145 cells was “almost completely suppressed”. Also, in assay [1], the “inhibition in spheroid formation” value is given as 100%. In addition, in the assay with MDA-MB-231 cells (MDA-MB-231), the JNK phosphorylation result was “dose-dependent increase in JNK phosphorylation activities”; the “Src phosphorylation, protein level of Smad1/5/8, LOX and activated Fak” value is on record as “repressed in a dose dependent manner”; the “expression of Snail and Twist” value is listed as “downregulated”; the “nuclear level of NF-κB p65” value was “suppressed nuclear level of NF-κB p65 in a dose-dependent manner”. Also, the “MAPK/ERK pathway (phosphorylation of Erk1/2, Mek1/2 and Elk1)” value in the assay on MDA-MB-231 cells (MDA-MB-231, 24 hours) was “activated”. In the assay with MDA-MB-231 cells (MDA-MB-231, 24 hrs), the “activation of pro-apoptotic proteins (cleaved products)” value is given as “activation of procaspase 3, 7, 8, 9 as well as PARP”. Further, the “Id1 and Id3 expressions (EGF-R similar)” value with MDA-MB-231 cells (MDA-MB-231, increasing dosages) is on record as “significantly suppressed to almost undetectable level”. Further, the “sub-G1 cell population (flow cytometry)” value in the assay with MDA-MB-231 cells (gamma-T3 IC50-90, 24 hrs) is “induction of sub-G1 cell population”.
